Measurements: patent US10358409B2, “Low-toxicity olefinic ester compositions and methods of using the same” (Elevance Renewable Sciences, Inc., priority 2014, dated 2019)

System: leptocheirus plumolosus
Assay: Aquatic toxicity, EPA Test No. 1644, percent survival after 10 days of exposure
Type: in vivo
Protocol: The aquatic toxicity of three cyclohexyl esters were tested against three comparative compounds. Aqueous samples of the following solvents were prepared at concentrations of 3200 mg/kg: xylene (Sample 2A); methyl 9-dodecenoate (Sample 2B); methyl esters of a mixture of C13-15 olefinic acids (Sample 2C); cyclohexyl 9-decenoate (Sample 2D); cyclohexyl 9-dodecenoate (Sample 2E); and cyclohexyl esters of a mixture of C13-15 olefinic acids. Using United States Environmental Protection Agency (EPA) Test No. 1644, the toxicity of the aqueous compositions was measured as the percent survival of leptocheirus plumolosus after 10 days of exposure. Table 1 recites the survival rates for each of the above compositions.

[1] = Leptocheirus plumolosus, in vivo, 3200 mg/kg, 10 days

Molecule	Survival Rate (%) [1] [%]	Survival Rate (%) (aqueous samples of the solvent at 3200 mg/kg, percent survival of leptocheirus plumolosus after 10 days of exposure)
C=CCCCCCCCC(=O)OC1CCCCC1 [Sample 2D, cyclohexyl 9-decenoate]	57	–
CCC=CCCCCCCCC(=O)OC [Sample 2B, methyl 9-dodecenoate]	47	–
xylene [Sample 2A]	–	69
CCC=CCCCCCCCC(=O)OC1CCCCC1 [Sample 2E, cyclohexyl 9-dodecenoate]	89	–
